Test results reported in patent US6979686B1, “Substituted pyrazoles as p38 kinase inhibitors” (Pharmacia Corporation, priority 2001, dated 2005).
Where two headings read alike, the source gives them in different places.

Experiments:
[1] = tested on: TNF-α, U937 human histiocytic lymphoma cell line; assay: LPS stimulation of TNF production by U937 cells; assay type: cell-based; details: for inhibition at 1 µM: U-937, @ 1.0 uM
Experimental: Maintenance and Differentiation of the U937 Human Histiocytic Lymphoma Cell Line:
Fifty million cells in 100 ml media were induced to terminal monocytic differentiation by 24 hour incubation with 20 ng/ml phorbol 12-myristate 13-acetate (Sigma). The cells were washed by centrifugation (200×g for 5 min) and resuspended in 100 ml fresh medium. After 24-48 hours, the cells were harvested, centrifuged, and resuspended in culture medium at 2 million cells/ml.
LPS Stimulation of TNF Production by U937 Cells:
Compounds were prepared as 10 mM stock solutions in DMSO and diluted in culture medium to yield a final DMSO concentration of 0.1% in the cell assay. LPS (E coli, 100 ng/ml final concentration) was then added at a volume of 0.02 ml. After 4 hour incubation at 37° C., the amount of TNF-α released in the culture medium was quantitated by ELISA. Inhibitory potency is expressed as IC50 (μM).
In vitro whole cell assay for measuring the ability of the compounds to inhibit TNF production in human U937 cells stimulated with LPS are shown in the column identified as: • “U937 Cell IC50, uM or % inhib @ conc., (uM)”

human p38 kinase alpha = molecular target: T1, human p38 kinase alpha (Homo sapiens, UniProt Q16539); assay: p38 kinase in vitro assay, phosphorylation of biotinylated PHAS-I with 32P-ATP; assay type: biochemical; details: for inhibition at 1 µM: read-out: P38 alpha kinase % inhib @ conc.
T1 construct: GST (N, cleaved yes); made in house; host or cells: E. coli DH10B

[2] = Homo sapiens, TNF production, U937 cells stimulated with LPS, read-out: U937 Cell % inhib @ conc.
[3] = in vitro P38-alpha kinase inhibition, read-out: P38 alpha kinase IC50
[4] = Homo sapiens, U-937, TNF production, human U937 cells stimulated with LPS, read-out: U937 Cell IC50
[5] = in vitro P38-alpha kinase, read-out: P38 alpha kinase IC50
[6] = Homo sapiens, U-937, TNF production in human U937 cells stimulated with LPS, read-out: U937 Cell IC50
[7] = @ 1.0 uM, TNF production in human U937 cells stimulated with LPS
[8] = @ 10.0 uM, TNF production, LPS-stimulated U937 cells
[9] = @ 1.0 uM, TNF production, U937 cells stimulated with LPS
[10] = Homo sapiens, TNF production, LPS-stimulated U937 cells, read-out: U937 Cell % inhib @ conc.
[11] = Table 5, LPS-stimulated U937 cells, TNF-α, read-out: U937 Cell Assay IC50
[12] = activated human p38 kinase alpha, PHAS-I substrate, 50 μM unlabeled ATP, read-out: p38 kinase IC50
[13] = Homo sapiens, TNF production in human U937 cells stimulated with LPS, read-out: U937 Cell % inhib @ conc.

T1 sequence (Q16539 whole entry): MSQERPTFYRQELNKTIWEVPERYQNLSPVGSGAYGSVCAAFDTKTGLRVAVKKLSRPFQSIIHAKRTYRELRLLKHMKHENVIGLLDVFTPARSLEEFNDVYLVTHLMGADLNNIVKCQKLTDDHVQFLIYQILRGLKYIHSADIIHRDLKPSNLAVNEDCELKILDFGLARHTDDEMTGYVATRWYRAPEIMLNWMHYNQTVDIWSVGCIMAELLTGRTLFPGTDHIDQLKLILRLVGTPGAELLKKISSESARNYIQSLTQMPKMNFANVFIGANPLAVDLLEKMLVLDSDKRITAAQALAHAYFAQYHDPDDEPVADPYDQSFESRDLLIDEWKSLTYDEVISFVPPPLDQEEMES

COc1ccc(CC(=O)NC(Cc2ccccc2)c2[nH]nc(-c3ccc(F)cc3)c2-c2ccncc2)cc1OC (stereo not shown) [Example B-0847]
inhibition at 1 µM [1, 2]: 21%
IC50 (human p38 kinase alpha; [3]): 730 nM

CNC(=O)CCC(NC(=O)COC)c1[nH]nc(-c2ccc(F)cc2)c1-c1ccncc1 (stereo not shown) [Example B-0870]
IC50 [1, 4]: > 1 µM
IC50 (human p38 kinase alpha; [3]): 3130 nM

CN(C)c1cccc2c(S(=O)(=O)NCCc3[nH]nc(-c4ccc(F)cc4)c3-c3ccncc3)cccc12 [Example B-1072]
inhibition at 1 µM [1, 2]: 28%
IC50 (human p38 kinase alpha; [3]): 380 nM

O=C(NC(Cc1ccccc1)c1[nH]nc(-c2ccc(F)cc2)c1-c1ccncc1)c1ccccc1C(F)(F)F (stereo not shown) [Example B-0844]
inhibition at 1 µM [1, 2]: 25%
IC50 (human p38 kinase alpha; [3]): 400 nM

O=C(c1ccc(I)cc1)N1CCC(c2[nH]nc(-c3ccc(F)cc3)c2-c2ccncc2)CC1 [Example B-1366]
IC50 [1, 4]: 0.27 µM
IC50 (human p38 kinase alpha; [5]): 40 nM

O=C(NCc1[nH]nc(-c2ccc(F)cc2)c1-c1ccncc1)[C@@H]1C[C@@H]1c1ccccc1 [Example B-0002]
inhibition at 10 µM ([1]; Homo sapiens, U-937, @ 10.0 uM, TNF production, U937 cells stimulated with LPS, read-out: U937 Cell % inhib @ conc.): 28%
inhibition at 1 µM (human p38 kinase alpha; @ 1.0 uM): 71%

COc1ccc(S(=O)(=O)NC(Cc2ccccc2)c2[nH]nc(-c3ccc(F)cc3)c2-c2ccncc2)cc1OC (stereo not shown) [Example B-0722]
IC50 [1, 6]: > 1 µM
IC50 (human p38 kinase alpha; [3]): 70 nM

Cc1ccccc1C(=O)NCCc1[nH]nc(-c2ccc(F)cc2)c1-c1ccncc1 [Example B-1120]
inhibition at 1 µM [1, 2]: 9%
IC50 (human p38 kinase alpha; [3]): 470 nM

CNC(=O)CCC(NC(=O)c1ccc(C)cc1)c1[nH]nc(-c2ccc(F)cc2)c1-c1ccncc1 (stereo not shown) [Example B-0873]
IC50 [1, 4]: > 1 µM
IC50 (human p38 kinase alpha; [3]): 6920 nM

CC(NC(=O)c1cccs1)c1[nH]nc(-c2ccc(F)cc2)c1-c1ccncc1 (stereo not shown) [Example B-0705]
U937 Cell % inhib @ conc. (uM) [1, 7]: 21.0% @
IC50 (human p38 kinase alpha; [3]): 440 nM

COC(=O)C(C)NC(=O)Cn1nc(-c2ccc(F)cc2)c(-c2ccncc2)c1C (stereo not shown) [Example B-2363]
U937 Cell % inhib @ conc. [1, 8]: 1.0% @
P38 alpha kinase % inhib @ conc. (human p38 kinase alpha; @ 10.0 uM): 44.0% @

CCCNC(=O)NC(C)c1[nH]nc(-c2ccc(F)cc2)c1-c1ccncc1 (stereo not shown) [Example B-0590]
IC50 [1, 6]: 38 µM
IC50 (human p38 kinase alpha; [3]): 1570 nM

COc1ccccc1CCNC(=O)Cn1nc(-c2ccc(F)cc2)c(-c2ccncc2)c1C [Example B-2315]
U937 Cell % inhib @ conc. [1, 8]: 36.0% @
IC50 (human p38 kinase alpha; [5]): 490 nM

CCCCCSc1cccc(NC(=O)Cn2nc(-c3ccc(F)cc3)c(-c3ccncc3)c2C)c1 [Example B-2447]
IC50 ([1]; TNF production, U937 cells stimulated with LPS, read-out: U937 Cell IC50, uM or % inhib @ conc. (uM): IC50): > 10 µM
P38 alpha kinase IC50, uM or % inhib @ conc. (uM): % inhib (human p38 kinase alpha; @ 10.0 uM): 94.0% @

O=C(NCc1[nH]nc(-c2ccc(F)cc2)c1-c1ccncc1)c1ccc(F)c(F)c1 [Example B-0045]
IC50 [1, 4]: 1.01 µM
inhibition at 1 µM (human p38 kinase alpha; @ 1.0 uM): 94%

CCOC(=O)NC(=O)NCc1[nH]nc(-c2ccc(F)cc2)c1-c1ccncc1 [Example B-0152]
U937 Cell % inhib @ conc. [1, 9]: 24.0% @
P38 alpha kinase % inhib @ conc. (human p38 kinase alpha; @ 1.0 uM): 51.0% @

O=S(=O)(c1ccc(F)cc1)N1CCC(c2[nH]nc(-c3ccc(F)cc3)c2-c2ccncc2)CC1 [Example B-1470]
inhibition at 1 µM [1, 10]: 28%
IC50 (human p38 kinase alpha; [5]): 600 nM

O=C(NC(Cc1ccccc1)c1[nH]nc(-c2ccc(F)cc2)c1-c1ccncc1)C1CCCN1 (stereo not shown) [Example B-0794]
U937 Cell % inhib @ conc. (uM) [1, 7]: 2.0% @
IC50 (human p38 kinase alpha; [3]): 2900 nM

O=C(NCCc1[nH]nc(-c2ccc(F)cc2)c1-c1ccncc1)c1ccc(F)cc1C(F)(F)F [Example B-1139]
inhibition at 1 µM [1, 2]: 29%
IC50 (human p38 kinase alpha; [3]): 41 nM

O=C(NCCCc1[nH]nc(-c2ccc(F)cc2)c1-c1ccncc1)C1CCC1 [Example B-1165]
IC50 ([1]; TNF production, human U937 cells stimulated with LPS, read-out: U937 Cell IC50): 0.99 µM
P38 alpha kinase % inhib @ conc. (uM) (human p38 kinase alpha; @ 1.0 uM): 66.0% @

Cc1[nH]nc(-c2ccc(F)c(F)c2)c1-c1ccncc1 [Example A-46]
IC50 [1, 11]: 0.329 µM
IC50 (human p38 kinase alpha; [12]): < 100 nM

COc1ccc(NC(=O)NCCc2[nH]nc(-c3ccc(F)cc3)c2-c2ccncc2)cc1 [Example B-0978]
U937 Cell % inhib @ conc. (uM) [1, 9]: 36.0% @
P38 alpha kinase % inhib @ conc. (uM) (human p38 kinase alpha; @ 1.0 uM): 59.0% @

O=S(=O)(NCCc1[nH]nc(-c2ccc(F)cc2)c1-c1ccncc1)c1ccc(F)cc1 [Example B-1013]
U937 Cell % inhib @ conc. (uM) [1, 9]: 7.0% @
P38 alpha kinase % inhib @ conc. (uM) (human p38 kinase alpha; @ 1.0 uM): 85.0% @

O=C(NCCc1[nH]nc(-c2ccc(F)cc2)c1-c1ccncc1)c1ccc(C(F)(F)F)cc1 [Example B-1155]
inhibition at 1 µM [1, 2]: 30%
IC50 (human p38 kinase alpha; [3]): 3220 nM

CNC(=O)CCC(NS(=O)(=O)c1ccccc1F)c1[nH]nc(-c2ccc(F)cc2)c1-c1ccncc1 (stereo not shown) [Example B-0879]
inhibition at 1 µM [1, 2]: 1%
IC50 (human p38 kinase alpha; [3]): 870 nM

CC(NC(=O)NCc1ccccc1)c1[nH]nc(-c2ccc(F)cc2)c1-c1ccncc1 (stereo not shown) [Example B-0580]
IC50 ([1]; TNF production in human U937 cells stimulated with LPS, read-out: U937 Cell IC50): 0.84 µM
IC50 (human p38 kinase alpha; [3]): 2230 nM

CNC(=O)CCC(NC(=O)C(C)C)c1[nH]nc(-c2ccc(F)cc2)c1-c1ccncc1 (stereo not shown) [Example B-0863]
inhibition at 1 µM [1, 2]: 25%
IC50 (human p38 kinase alpha; [3]): 810 nM

O=S(=O)(NCCc1[nH]nc(-c2ccc(F)cc2)c1-c1ccncc1)c1ccccc1F [Example B-1020]
U937 Cell % inhib @ conc. (uM) [1, 9]: 36.0% @
P38 alpha kinase % inhib @ conc. (uM) (human p38 kinase alpha; @ 1.0 uM): 87.0% @

CCS(=O)(=O)N1CCC(c2[nH]nc(-c3ccc(F)cc3)c2-c2ccncc2)CC1 [Example B-1375]
IC50 [1, 4]: 0.25 µM
IC50 (human p38 kinase alpha; [5]): 10 nM

CC(NS(=O)(=O)c1cccc2cnccc12)c1[nH]nc(-c2ccc(F)cc2)c1-c1ccncc1 (stereo not shown) [Example B-0490]
inhibition at 1 µM [1, 13]: 74%
IC50 (human p38 kinase alpha; [3]): 910 nM

Cc1ccc(S(=O)(=O)NC(Cc2ccccc2)C(=O)NC(C)c2[nH]nc(-c3ccc(F)cc3)c2-c2ccncc2)cc1 (stereo not shown) [Example B-0560]
inhibition at 1 µM [1, 13]: 31%
IC50 (human p38 kinase alpha; [3]): 2570 nM

CNC(=O)CCC(NC(=O)c1ccccc1OC)c1[nH]nc(-c2ccc(F)cc2)c1-c1ccncc1 (stereo not shown) [Example B-0871]
IC50 [1, 4]: > 1 µM
IC50 (human p38 kinase alpha; [3]): 1900 nM

Cc1cccc(S(=O)(=O)N2CCC(c3[nH]nc(-c4ccc(F)cc4)c3-c3ccncc3)CC2)c1 [Example B-1467]
inhibition at 1 µM [1, 10]: 1%
IC50 (human p38 kinase alpha; [5]): 1220 nM

CNC(=O)CCC(NC(=O)c1ccncc1)c1[nH]nc(-c2ccc(F)cc2)c1-c1ccncc1 (stereo not shown) [Example B-0875]
inhibition at 1 µM [1, 2]: 8%
IC50 (human p38 kinase alpha; [3]): 2130 nM

CC(=O)Nc1ccc(S(=O)(=O)NCCc2[nH]nc(-c3ccc(F)cc3)c2-c2ccncc2)cc1 [Example B-1059]
inhibition at 1 µM [1, 2]: 24%
IC50 (human p38 kinase alpha; [3]): 180 nM

CC(NC(=O)c1cccc(Br)c1)c1[nH]nc(-c2ccc(F)cc2)c1-c1ccncc1 (stereo not shown) [Example B-0539]
inhibition at 1 µM [1, 13]: 21%
IC50 (human p38 kinase alpha; [3]): 2840 nM

O=C(NCc1[nH]nc(-c2ccc(F)cc2)c1-c1ccncc1)c1cccc(CCl)c1 [Example B-0065]
U937 Cell % inhib @ conc. [1, 9]: 21.0% @
P38 alpha kinase % inhib @ conc. (human p38 kinase alpha; @ 1.0 uM): 83% @

COc1ccccc1C(=O)NC(Cc1ccccc1)c1[nH]nc(-c2ccc(F)cc2)c1-c1ccncc1 (stereo not shown) [Example B-0811]
inhibition at 1 µM [1, 2]: 2%
IC50 (human p38 kinase alpha; [3]): 2790 nM

Cc1c(Cl)cccc1S(=O)(=O)NCCc1[nH]nc(-c2ccc(F)cc2)c1-c1ccncc1 [Example B-1075]
inhibition at 1 µM [1, 2]: 29%
IC50 (human p38 kinase alpha; [3]): 30 nM

Cc1[nH]nc(-c2cccc(Cl)c2)c1-c1ccncc1 [Example A-51]
IC50 [1, 11]: 0.074 µM
IC50 (human p38 kinase alpha; [12]): < 100 nM

COc1ccc(OC)c(S(=O)(=O)NCCc2[nH]nc(-c3ccc(F)cc3)c2-c2ccncc2)c1 [Example B-1085]
inhibition at 1 µM [1, 2]: 29%
IC50 (human p38 kinase alpha; [3]): < 100 nM
